smiles,measurement,setting,value
C#C[C@]1(O)CC[C@H]2[C@@H]3CCC4=CC(=O)CC[C@@H]4[C@H]3C(=C)C[C@@]21CC,solubility (mole fraction),"in DMF, 273.15 K",0.0757
same,solubility (mole fraction),"in DMF, 278.15 K",0.0792
same,solubility (mole fraction),"in DMF, 283.15 K",0.0825
same,solubility (mole fraction),"in DMF, 288.15 K",0.0865
same,solubility (mole fraction),"in DMF, 293.15 K",0.0888
same,solubility (mole fraction),"in DMF, 298.15 K",0.0965
same,solubility (mole fraction),"in DMF, 303.15 K",0.0974
same,solubility (mole fraction),"in DMF, 308.15 K",0.101
same,solubility (mole fraction),"in DMF, 313.15 K",0.105
same,solubility (mole fraction),"in DMF, 318.15 K",0.109
same,solubility (mole fraction),"in DMF, 323.15 K",0.115
same,solubility (mole fraction),"in THF, 273.15 K",0.0739
same,solubility (mole fraction),"in THF, 278.15 K",0.0891
same,solubility (mole fraction),"in THF, 283.15 K",0.106
same,solubility (mole fraction),"in THF, 288.15 K",0.125
same,solubility (mole fraction),"in THF, 293.15 K",0.148
same,solubility (mole fraction),"in THF, 298.15 K",0.173
same,solubility (mole fraction),"in THF, 303.15 K",0.2
same,solubility (mole fraction),"in THF, 308.15 K",0.223
same,solubility (mole fraction),"in THF, 313.15 K",0.263
same,solubility (mole fraction),"in THF, 318.15 K",0.299
same,solubility (mole fraction),"in THF, 323.15 K",0.332
same,solubility (mole fraction),"in acetone, 273.15 K",0.012
same,solubility (mole fraction),"in acetone, 278.15 K",0.0133
same,solubility (mole fraction),"in acetone, 283.15 K",0.0148
same,solubility (mole fraction),"in acetone, 288.15 K",0.0165
same,solubility (mole fraction),"in acetone, 293.15 K",0.0184
same,solubility (mole fraction),"in acetone, 298.15 K",0.0198
same,solubility (mole fraction),"in acetone, 303.15 K",0.0224
same,solubility (mole fraction),"in acetone, 308.15 K",0.0248
same,solubility (mole fraction),"in acetone, 313.15 K",0.0273
same,solubility (mole fraction),"in acetone, 318.15 K",0.03
same,solubility (mole fraction),"in acetone, 323.15 K",0.0335
same,solubility (mole fraction),"in ethanol, 273.15 K",0.0017
same,solubility (mole fraction),"in ethanol, 278.15 K",0.00209
same,solubility (mole fraction),"in ethanol, 283.15 K",0.00249
same,solubility (mole fraction),"in ethanol, 288.15 K",0.00293
same,solubility (mole fraction),"in ethanol, 293.15 K",0.00343
same,solubility (mole fraction),"in ethanol, 298.15 K",0.00412
same,solubility (mole fraction),"in ethanol, 303.15 K",0.00494
same,solubility (mole fraction),"in ethanol, 308.15 K",0.00593
same,solubility (mole fraction),"in ethanol, 313.15 K",0.00695
same,solubility (mole fraction),"in ethanol, 318.15 K",0.00817
same,solubility (mole fraction),"in ethanol, 323.15 K",0.00967
same,solubility (mole fraction),"in ethyl acetate, 273.15 K",0.0189
same,solubility (mole fraction),"in ethyl acetate, 278.15 K",0.022
same,solubility (mole fraction),"in ethyl acetate, 283.15 K",0.0249
same,solubility (mole fraction),"in ethyl acetate, 288.15 K",0.0291
same,solubility (mole fraction),"in ethyl acetate, 293.15 K",0.0338
same,solubility (mole fraction),"in ethyl acetate, 298.15 K",0.0383
same,solubility (mole fraction),"in ethyl acetate, 303.15 K",0.043
same,solubility (mole fraction),"in ethyl acetate, 308.15 K",0.0476
same,solubility (mole fraction),"in ethyl acetate, 313.15 K",0.0539
same,solubility (mole fraction),"in ethyl acetate, 318.15 K",0.059
same,solubility (mole fraction),"in ethyl acetate, 323.15 K",0.0648
same,solubility (mole fraction),"in isopropanol, 273.15 K",0.00463
same,solubility (mole fraction),"in isopropanol, 278.15 K",0.00545
same,solubility (mole fraction),"in isopropanol, 283.15 K",0.00633
same,solubility (mole fraction),"in isopropanol, 288.15 K",0.00731
same,solubility (mole fraction),"in isopropanol, 293.15 K",0.00851
same,solubility (mole fraction),"in isopropanol, 298.15 K",0.00994
same,solubility (mole fraction),"in isopropanol, 303.15 K",0.0115
same,solubility (mole fraction),"in isopropanol, 308.15 K",0.0132
same,solubility (mole fraction),"in isopropanol, 313.15 K",0.0154
same,solubility (mole fraction),"in isopropanol, 318.15 K",0.0178
same,solubility (mole fraction),"in isopropanol, 323.15 K",0.0209
same,solubility (mole fraction),"in methyl acetate, 273.15 K",0.0104
same,solubility (mole fraction),"in methyl acetate, 278.15 K",0.0119
same,solubility (mole fraction),"in methyl acetate, 283.15 K",0.0135
same,solubility (mole fraction),"in methyl acetate, 288.15 K",0.0153
same,solubility (mole fraction),"in methyl acetate, 293.15 K",0.017
same,solubility (mole fraction),"in methyl acetate, 298.15 K",0.019
same,solubility (mole fraction),"in methyl acetate, 303.15 K",0.0211
same,solubility (mole fraction),"in methyl acetate, 308.15 K",0.0229
same,solubility (mole fraction),"in methyl acetate, 313.15 K",0.025
same,solubility (mole fraction),"in methyl acetate, 318.15 K",0.0271
same,solubility (mole fraction),"in methyl acetate, 323.15 K",0.0294
same,solubility (mole fraction),"in n-butanol, 273.15 K",0.00421
same,solubility (mole fraction),"in n-butanol, 278.15 K",0.00514
same,solubility (mole fraction),"in n-butanol, 283.15 K",0.00615
same,solubility (mole fraction),"in n-butanol, 288.15 K",0.00742
same,solubility (mole fraction),"in n-butanol, 293.15 K",0.00904
same,solubility (mole fraction),"in n-butanol, 298.15 K",0.0109
same,solubility (mole fraction),"in n-butanol, 303.15 K",0.0126
same,solubility (mole fraction),"in n-butanol, 308.15 K",0.0148
same,solubility (mole fraction),"in n-butanol, 313.15 K",0.0171
same,solubility (mole fraction),"in n-butanol, 318.15 K",0.0198
same,solubility (mole fraction),"in n-butanol, 323.15 K",0.0227
same,solubility (mole fraction),"in n-propanol, 273.15 K",0.00452
same,solubility (mole fraction),"in n-propanol, 278.15 K",0.00514
same,solubility (mole fraction),"in n-propanol, 283.15 K",0.00585
same,solubility (mole fraction),"in n-propanol, 288.15 K",0.00657
same,solubility (mole fraction),"in n-propanol, 293.15 K",0.00753
same,solubility (mole fraction),"in n-propanol, 298.15 K",0.00865
same,solubility (mole fraction),"in n-propanol, 303.15 K",0.00974
same,solubility (mole fraction),"in n-propanol, 308.15 K",0.0112
same,solubility (mole fraction),"in n-propanol, 313.15 K",0.0124
same,solubility (mole fraction),"in n-propanol, 318.15 K",0.0142
same,solubility (mole fraction),"in n-propanol, 323.15 K",0.0159
same,solubility (mole fraction),"in water, 273.15 K",1.38e-05
same,solubility (mole fraction),"in water, 278.15 K",1.64e-05
same,solubility (mole fraction),"in water, 283.15 K",1.92e-05
same,solubility (mole fraction),"in water, 288.15 K",2.24e-05
same,solubility (mole fraction),"in water, 293.15 K",2.6e-05
same,solubility (mole fraction),"in water, 298.15 K",3.1e-05
same,solubility (mole fraction),"in water, 303.15 K",3.65e-05
same,solubility (mole fraction),"in water, 308.15 K",4.25e-05
same,solubility (mole fraction),"in water, 313.15 K",4.91e-05
same,solubility (mole fraction),"in water, 318.15 K",5.62e-05
same,solubility (mole fraction),"in water, 323.15 K",6.37e-05
